Data taken from patent US12281125B2, “Rapamycin derivatives” (NOVARTIS AG, priority 2018, dated 2025).
pKd: −log10 of the molar value.

Tests used:
[1] = test system: mTORC1 activity, S6K1 (Thr389) in WT 293T cells; assay: S6K1(Thr389) phosphorylation ELISA in wild-type 293T cells; assay type: cell-based; conditions: 2 hours
Experimental: WT, FKBP12 knock-out, FKBP12/12.6/13/52/51 knock-out or FKBP12/12.6/25/52/51 knock-out 293T cells were plated at a density of 30,000 cells per well in poly-D-Lysine coated 96-well plates (Corning, #354461) in Dulbecco's modified Eagle's medium (ThermoFisher, #11995-065) supplemented with 10% fetal bovine serum (ThermoFisher, #16140-071). Cells were incubated at 37° C., 5% CO2 for 48 hours until they reached ˜80% confluence. […] Media supplemented with blank Dimethyl sulfoxide (DMSO) was used as a control for both compounds. Phosphorylated amounts of S6K1 (Thr389) were detected by a sandwich ELISA kit (Cell signaling, #7063C) following the manufacture's protocol.
S6K1 is a downstream target of mTORC1 and phosphorylation of its rapalog-sensitive Thir389 site is used as a functional readout of mTORC1 activity (Lee, C. H., Inoki, K. and Guan, K. L. (2007). mTOR pathway as a target in tissue hypertrophy. Annu. Rev. Pharmacol. Toxicol. 47, 443-467).

[2] = target: T1, FKBP52 (Homo sapiens, UniProt Q02790); assay: SPR assay, binding affinity to FKBP52; conditions: equilibrium dissociation constant
T1 construct: made in house; host or cells: E. coli
T1 sequence (Q02790 1-459): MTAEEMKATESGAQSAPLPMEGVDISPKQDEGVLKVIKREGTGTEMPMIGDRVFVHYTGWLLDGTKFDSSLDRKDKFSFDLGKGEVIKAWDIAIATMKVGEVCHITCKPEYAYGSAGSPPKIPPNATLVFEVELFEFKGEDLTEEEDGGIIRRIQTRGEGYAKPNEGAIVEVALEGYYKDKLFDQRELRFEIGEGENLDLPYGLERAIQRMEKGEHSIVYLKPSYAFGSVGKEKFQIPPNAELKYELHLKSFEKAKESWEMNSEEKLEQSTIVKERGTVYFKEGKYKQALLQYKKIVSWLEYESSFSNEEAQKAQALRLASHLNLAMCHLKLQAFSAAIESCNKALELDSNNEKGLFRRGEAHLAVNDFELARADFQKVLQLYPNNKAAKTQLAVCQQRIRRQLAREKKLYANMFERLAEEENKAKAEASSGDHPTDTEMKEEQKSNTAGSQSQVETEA
Experimental: (§1) N-terminal avi-his6-tagged FKBP fusion proteins were expressed in E. coli and purified with nickel chromatography using standard procedures. Biotinylated his-avi-FKBPs were immobilized on a streptavidin chip using a Biacore 8K (GE Healthcare). To determine the kinetics-affinity of the rapalogs for FKBPs, rapalogs were diluted in DMSO to 50× working concentration. Next, 3.1 uLs of each rapalog solution was added to 150 uLs of buffer (50 mM Tris pH 7.5/150 mM NaCl/0.01% Tween 20/1 mM DTT) in a 384 deep well plate (greiner bio-one/78127) and mixed using a Biomek FX. The rapalog solution gradients (6 concentrations/2 fold dilutions, 3.1-100 nM or 31-1000 nM or 310-10000 nM) were then injected at 45 uL/min for 120 seconds: contact time and dissociation time was 1800 seconds in running buffer (50 mM Tris pH 7.5/150 mM NaCl/0.01% Tween 20/1 mM DTT/2% DMSO). The single-cycle kinetics data were fit to a 1:1 binding model to measure the association rate ka (1/Ms), the dissociation rate kd (1/s) and the affinity KD (M). […] 3.1 uLs of the 500 μM rapalog solutions were added to 150 uLs of the mTOR samples in a 384 deep well plate (greiner bio-one/78127) and mixed using a Biomek FX. The mTOR solution gradients were then injected at 45 uL/min for 120 seconds: contact time and dissociation time was 1800 seconds in running buffer (50 mM Tris pH 7.5/150 mM NaCl/0.01% Tween 20/1 mM DTT/2% DMSO). The single-cycle kinetics data was fit to a 1:1 binding model to measure the association rate ka (1/Ms), the dissociation rate kd (1/s) and the apparent affinity KD (M) for ternary complex formation.
The equilibrium dissociation constants (KD) to FKBP12, FKBP51, and FKBP52 are shown below in Table 6.

[3] = target: T2, FKBP52-rapalog-mTOR (amino acids 2019-2112) ternary complex (Homo sapiens, UniProt P42345+Q02790); assay: SPR ternary complex formation, rapalog bound to FKBP52 with mTOR; assay type: binding; conditions: rapalog bound to FKBP with mTOR, read-out: FKBP52 apparent affinity KD for ternary complex formation
T2 construct: his^6-mTOR (amino acids 2019-2112) was diluted in buffer; made in house; host or cells: E. coli
T2 sequence (P42345 2019-2112 limits assumed, one chain of several): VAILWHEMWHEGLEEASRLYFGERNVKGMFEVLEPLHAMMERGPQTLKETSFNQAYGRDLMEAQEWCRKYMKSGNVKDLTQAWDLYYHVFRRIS
Experimental: as §1, with “The single-cycle kinetics data was fit to a 1:1 binding model to measure the association rate ka (1/Ms), the dissociation rate kd (1/s) and the apparent affinity KD (M) for ternary complex formation.” left out

[4] = target: T3, FKBP13-rapalog-mTOR (amino acids 2019-2112) ternary complex (Homo sapiens, UniProt P26885+P42345); assay: SPR ternary complex formation, rapalog bound to FKBP13 with mTOR; assay type: binding; conditions: rapalog bound to FKBP with mTOR, read-out: FKBP13 apparent affinity KD for ternary complex formation
T3 construct: his^6-mTOR (amino acids 2019-2112) was diluted in buffer; made in house; host or cells: E. coli
T3 sequence (P26885 22-142): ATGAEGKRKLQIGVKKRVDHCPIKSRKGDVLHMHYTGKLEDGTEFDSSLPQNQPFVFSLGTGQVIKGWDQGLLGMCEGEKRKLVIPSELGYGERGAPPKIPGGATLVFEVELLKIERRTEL
T3 sequence (P42345 2019-2112 limits assumed): as the sequence (P42345 2019-2112 limits assumed, one chain of several) above
Experimental: as §1, with “The single-cycle kinetics data was fit to a 1:1 binding model to measure the association rate ka (1/Ms), the dissociation rate kd (1/s) and the apparent affinity KD (M) for ternary complex formation.” left out

[5] = target: T4, FKBP12.6-rapalog-mTOR (amino acids 2019-2112) ternary complex (Homo sapiens, UniProt P42345+P68106); assay: SPR ternary complex formation, rapalog bound to FKBP12.6 with mTOR; assay type: binding; conditions: rapalog bound to FKBP with mTOR, read-out: FKBP12.6 apparent affinity KD for ternary complex formation
T4 construct: his^6-mTOR (amino acids 2019-2112) was diluted in buffer; made in house; host or cells: E. coli
T4 sequence (P68106 whole entry, the tested form may be a part): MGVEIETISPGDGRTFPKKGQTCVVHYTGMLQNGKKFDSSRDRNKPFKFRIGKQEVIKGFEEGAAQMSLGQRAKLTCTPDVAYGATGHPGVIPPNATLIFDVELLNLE
T4 sequence (P42345 2019-2112 limits assumed): as the sequence (P42345 2019-2112 limits assumed, one chain of several) above
Experimental: as §1, with “The single-cycle kinetics data was fit to a 1:1 binding model to measure the association rate ka (1/Ms), the dissociation rate kd (1/s) and the apparent affinity KD (M) for ternary complex formation.” left out

[6] = Pharmacokinetic profile in rats; assay type: in vivo; conditions: male, Sprague-Dawley, blood, rat
Experimental: All procedures involving animals were approved by the Institutional Animal Care and Use Committee of the Novartis Institutes for Biomedical Research, Cambridge, Mass., USA. Adult Sprague Dawley (SD) male rats were purchased from Envigo (Indianapolis, USA). Once imported, rats were maintained at the specific pathogen free facilities with controlled temperature and light (22° C., 12-h light/12-h dark cycle: lights on at 0600 h/lights off at 1800 h) and with ad libitum access to food and water. Rats were acclimated for at least 3 days before experiments commenced.
Various organs were collected and frozen in liquid nitrogen. Blood was collected via a tail vein or a cardiac puncture (terminal) and frozen for further pharmacokinetics analyses. All tissues were stored at −80° C. until analyzed.
Concentrations were determined using HPLC/Mass spectrometry.
Compounds were administered to rats aged 7-9 weeks (N=3 per group) p.o. at 3 mg/kg and intravenously (i.v). at 1 mg/kg (FIGS. 3A and 3B).

For `CO[C@@H]1C[C@H](C[C@@H](C)[C@@H]2CC[C@H](C)/C=C(\C)[C@@H](O)[C@@H](OC)C(=O)[C@H](C)C[C@H](C)/C=C/C=C/C=C(\C)[C@@H](NS(C)(=O)=O)C[C@@H]3CC[C@@H](C)[C@@](O)(O3)C(=O)C(=O)N3CCCC[C@H]3C(=O)O2)CC[C@H]1O` [Compound 2], which “inhibition of S6K1(Thr389) phosphorylation” value [1] is on record?
Its value is about 80%.

And the pKd [2]?
The pKd was 6.43.

And the pKd [3]?
Its pKd is 7.44.

What about the pKd [4] of the same molecule?
Its pKd is 6.90.

What about the pKd [5] of the same molecule?
The pKd was 7.26.

And the clearance ([6]; iv, i.v. 1 mg/kg)?
Its clearance is 0.78 L/h/kg.

What about the half-life ([6]; iv, i.v. 1 mg/kg, read-out: iv. terminal half-life (converted)) of the same molecule?
The half-life was 19 h.

What about the bioavailability ([6]; oral, p.o. 3 mg/kg and i.v. 1 mg/kg, solution formulation) of the same molecule?
The bioavailability was 16%.

With `CO[C@H]1C[C@@H]2CC[C@@H](C)[C@@](O)(O2)C(=O)C(=O)N2CCCC[C@H]2C(=O)O[C@H]([C@H](C)C[C@@H]2CC[C@@H](OCCO)[C@H](OC)C2)CC(=O)[C@H](C)/C=C(\C)[C@@H](O)[C@@H](OC)C(=O)[C@H](C)C[C@H](C)/C=C/C=C/C=C/1C` [RAD001, everolimus, reference compound] as the molecule, how does the “inhibition of S6K1(Thr389) phosphorylation” value [1] read?
The value was about 80%.

And the pKd [2]?
Its pKd is 5.75.

And the pKd [3]?
The pKd was 6.60.

And the pKd [4]?
The pKd was 7.68.

What about the pKd [5] of the same molecule?
The pKd was 7.33.
